What was measured:
[1] = in-vitro test of oral rinses' ability to destroy or reduce microbial VSC toxins; settings: 30 second exposure
Text: FIG. 7 is an exemplary table of comparative laboratory text results, and a corresponding graphical representation of the average reduction in […] of each compound listed in the table.
FIG. 7 is an exemplary table of comparative laboratory text results, and a corresponding graphical representation of the average reduction in Volatile Sulfur Compounds of each compound listed in the table. More specifically, the table data and corresponding chart presents the results of controlled laboratory tests conducted on Aug. 11, 2012. The in-vitro tests simulated actual patient-use conditions anticipated in root canal and periodontal procedures. The measurements compare oral rinses based on their ability to destroy or reduce microbial VSC toxins after a 30 second exposure. The tests were completed for a variety of toxins including those produced by Porphyromonas gingivalis, Prevotella intermedia, Tannerella forsythia, Treponema socranskii, and Streptococcus mitis, all of which are routinely present in the oral cavity during periodontal and endodontic procedures.

[2] = system: bacteria typically found in the oral cavity; assay: standard Minimum Inhibitory Concentration test, other listed bacteria; format: cell-based; settings: 18 to 24 hour MIC test
Description: (§1) FIG. 8 is an exemplary table of comparative laboratory test results illustrating Minimum Inhibitor Concentration of CD at a concentration of 37 parts per million versus Chlorhexidine (CHX) in effectiveness to destroy bacteria and yeast.
(§2) FIG. 8 is an exemplary table listing the comparative results of an 18 to 24 hour standard Minimum Inhibitory Concentration test of a chlorhexidine oral rinse solutions' effectiveness in inhibiting growth of bacteria typically found in the oral cavity, and during dental procedures. More specifically, under controlled test conditions of the University of Iowa College of Dentistry, May 15, 2012, a CD rinse solution was tested against and compared to the chlorhexidine (CHX) as shown.
(§3) It should be noted that even when CHX outperformed CD, or performed as well as CD but at lower concentrations, it did so after continuously acting upon the bacteria for a continuous period of 18 to 24 hours; CD on the other hand while the CD tested had been active for only three minutes, yet remarkably continued to inhibit growth for the subsequent testing time period.

[3] = system: Listeria, E. Coli, Pseudomonas, Salmonella, Staphylococcus, Streptococcus and others; settings: within 30-60 seconds; cited from earlier work
[4] = system: Aggregatibacter actinomycetemcomitans; assay: standard Minimum Inhibitory Concentration test; format: cell-based; settings: 18 to 24 hour test; CD at 37 parts per million, active for only three minutes
Description: as §1, §2, §3

[5] = in humans, including rare cases of anaphylactic shock; cited from earlier work

[O][Cl+][O-] [CD, chlorine dioxide]
microbial toxins destroyed (reduction in Volatile Sulfur Compounds) [1]: 100%
growth inhibition compared with CHX (result in words) [2]: equally well or slightly less well than CHX
log reduction [3]: 5 log
reduction [3]: 99.999%
Minimum Inhibitory Concentration, as dilution of rinse inhibiting growth [4]: 1/32

[H]/N=C(\N/C(=N/[H])NCCCCCCNC(=N)NC(=N)Nc1ccc(Cl)cc1)Nc1ccc(Cl)cc1 [Chlorhexidine, reference compound]
toxin reduction (result in words) [1]: statistically nonsignificant drops
incidence of hypersensitivity reactions [5]: 2%
Minimum Inhibitory Concentration, as dilution of rinse inhibiting growth [4]: ⅛

Source: patent US20140242551A1, “Oral Care System and Method” (priority 2013, published 2014)
